Source: patent US9637486B2, “Btk inhibitors” (MERCK SHARP & DOHME CORP., priority 2013, dated 2017)

molecular target: BTK enzyme (hBTK, full-length recombinant) (Homo sapiens (Human), UniProt Q06187); assay: Btk enzyme activity assay, LANCE TR-FRET; format: biochemical; conditions: 50 pM hBTK, 2 μM biotin-A5-peptide, 25 μM ATP; 60 minute compound & enzyme incubation; read-out: BTK binding IC50
Description: Also BTK enzymatic activity was determined with the LANCE (Lanthanide Chelate Excite) TR-FRET (Time-resolved fluorescence resonance energy transfer) assay. […] Following a 60 minute compound & enzyme incubation, each reaction was initiated by the addition of 2.5 μL 1× kinase buffer containing 8 μM biotinylated “A5” peptide (Biotin-EQEDEPEGDYFEWLE-NH2), and 100 μM ATP. The final reaction in each well of 10 μL consists of […], 2 μM biotin-A5-peptide, and 25 μM ATP. Phosphorylation reactions were allowed to proceed for 120 minutes. Reactions were immediately quenched by the addition of 20 uL of 1× quench buffer (15 mM EDTA, 25 mM Hepes 7.3, and 0.1% Triton X-100) containing detection reagents (0.626 nM of LANCE-Eu-W1024-anti-phosphoTyrosine antibody, PerkinElmer and 86.8 nM of Streptavidin-conjugated Dylight 650, Dyomics/ThermoFisher Scientific). After 60 minutes incubation with detection reagents, reaction plates were read on a PerkinElmer EnVision plate reader using standard TR-FRET protocol. Briefly, excitation of donor molecules (Eu-chelate:anti-phospho-antibody) with a laser light source at 337 nm produces energy that can be transferred to Dylight-650 acceptor molecules if this donor:acceptor pair is within close proximity. Fluorescence intensity at both 665 nm (acceptor) and 615 nm (donor) are measured and a TR-FRET ratio calculated for each well (acceptor intensity/donor intensity). […] (Log10) compound concentrations. Btk Enzyme Activity Assay Method BTK enzymatic activity was determined with the LANCE (Lanthanide Chelate Excite) TR-FRET (Time-resolved fluorescence resonance energy transfer) assay. […] Following a 60 minute compound & enzyme incubation, each reaction was initiated by the addition of 2.5 μL 1× kinase buffer containing 8 μM biotinylated “A5” peptide (Biotin-EQEDEPEGDYFEWLE-NH2), and 100 μM ATP. The final reaction in each well of 10 μL consists of 50 pM hBTK, 2 μM biotin-A5-peptide, and 25 μM ATP. Phosphorylation reactions were allowed to proceed for 120 minutes. Reactions were immediately quenched by the addition of 20 uL of 1× quench buffer (15 mM EDTA, 25 mM Hepes 7.3, and 0.1% Triton X-100) containing detection reagents (0.626 nM of LANCE-Eu-W1024-anti-phosphoTyrosine antibody, PerkinElmer and 86.8 nM of Streptavidin-conjugated Dylight 650, Dyomics/ThermoFisher Scientific). After 60 minutes incubation with detection reagents, reaction plates were read on a PerkinElmer EnVision plate reader using standard TR-FRET protocol. Briefly, excitation of donor molecules (Eu-chelate:anti-phospho-antibody) with a laser light source at 337 nm produces energy that can be transferred to Dylight-650 acceptor molecules if this donor:acceptor pair is within close proximity. Fluorescence intensity at both 665 nm (acceptor) and 615 nm (donor) are measured and a TR-FRET ratio calculated for each well (acceptor intensity/donor intensity). […] (Log10) compound concentrations.

Chain of BTK enzyme (hBTK, full-length recombinant) (Q06187 whole entry): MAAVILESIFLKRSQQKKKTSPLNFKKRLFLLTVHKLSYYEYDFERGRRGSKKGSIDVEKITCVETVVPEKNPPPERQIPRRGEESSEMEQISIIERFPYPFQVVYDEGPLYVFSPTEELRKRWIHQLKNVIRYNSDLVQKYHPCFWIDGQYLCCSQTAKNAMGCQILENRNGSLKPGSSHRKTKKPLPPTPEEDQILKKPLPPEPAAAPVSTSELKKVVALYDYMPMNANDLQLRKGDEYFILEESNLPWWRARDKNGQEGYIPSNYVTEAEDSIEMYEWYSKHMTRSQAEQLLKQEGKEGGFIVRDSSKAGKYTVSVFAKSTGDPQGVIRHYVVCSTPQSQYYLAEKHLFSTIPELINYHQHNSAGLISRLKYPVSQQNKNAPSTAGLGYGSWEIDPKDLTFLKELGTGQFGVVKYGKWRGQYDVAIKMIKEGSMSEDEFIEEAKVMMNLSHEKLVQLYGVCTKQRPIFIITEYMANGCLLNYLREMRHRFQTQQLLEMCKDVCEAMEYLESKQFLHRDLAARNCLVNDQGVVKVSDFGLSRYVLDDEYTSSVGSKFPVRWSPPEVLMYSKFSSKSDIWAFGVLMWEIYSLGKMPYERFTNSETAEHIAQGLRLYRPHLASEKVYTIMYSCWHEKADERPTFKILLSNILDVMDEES

Structure (SMILES)	IC50
C[C@@H](O)C(=O)N1C[C@H](c2nn(-c3ccc(Oc4cccc(F)c4)cc3)c3c(N)nccc23)CC[C@@H]1C [Example 29, (2R)-1-[(2S,5R)-5-{7-amino-1-[4-(3-fluorophenoxy)phenyl]-1H-pyrazolo[3,4-c]pyridin-3-yl}-2-methylpiperidin-1-yl]-1-oxopropan-2-ol]	5.8 nM
CC1(C(=O)N2CCC[C@@H](c3nn(-c4ccc(Oc5ccccc5)cc4)c4c(N)nccc34)C2)COC1 [Example 1, (R)-(3-(7-amino-1-(4-phenoxyphenyl)-1H-pyrazolo[3,4-c]pyridin-3-yl)piperidin-1-yl)(3-methyloxetan-3-yl)methanone]	1.7 nM
C[C@H]1CC[C@@H](c2nn(-c3ccc(Oc4cccc(F)c4)cc3)c3c(N)nccc23)CN1C(=O)C1(C)COC1 [Example 28, 1-[4-(3-fluorophenoxy)phenyl]-3-{(3R,6S)-6-methyl-1-[(3-methyloxetan-3-yl)carbonyl]piperidin-3-yl}-1H-pyrazolo[3,4-c]pyridin-7-amine]	3.8 nM

The remaining compounds from weak to strong by IC50, led by results:

IC50	Structure (SMILES)
56.9 nM	CC1(C(=O)N2CCC[C@@H](c3nn(-c4ccc(Oc5ccc(F)cc5)cc4)c4c(N)nccc34)C2)COC1 [Example 26, (R)-(3-(7-amino-1-(4-(4-fluorophenoxy)phenyl)-1H-pyrazolo[3,4-c]pyridin-3-yl)piperidin-1-yl)(3-methyloxetan-3-yl)methanone]
9.3 nM	Nc1nccc2c([C@@H]3CCCN(C(=O)C4CC4(F)F)C3)nn(-c3ccc(Oc4ccccc4)cc3)c12 (stereo partly drawn) [Example 4, 3-{(3R)-1-[(2,2-difluorocyclopropyl)carbo-nyl]piperidin-3-yl}-1-(4-phenoxyphenyl)-1H-pyrazolo[3,4-c]pyridin-7-amine]
